According to patent US10450549B2, “Aryloxyphenoxypropionate tolerance in turfrgass species and use of AAD1 as a selectable marker” (Dow AgroSciences, LLC, priority 2004, dated 2019):

Columns and labels:
[1] = biological target: AAD2 (v1) (Bradyrhizobium diazoefficiens, UniProt Q89UC4); assay: Colorimetric phenol assay of AAD2 (v1) E. coli extract / partially purified enzyme; format: biochemical, Bradyrhizobium japonicum; details: for A510 AAD2: substrate 0.5 mM, 15 min, 25 mM MOPS pH 6.8, 3 μl AAD2 extract (42 μg protein)
[2] = biological target: T1, AAD1 (v1) (Sphingobium herbicidovorans, UniProt Q8KSC8); assay: Colorimetric phenol detection assay of AAD1 (v1) activity (purified enzyme or E. coli extract); format: biochemical; details: for A510, AAD1 (10x): 10 μg purified AAD1 (v1) per 0.16 ml assay; for activity of purified AAD1 (v1) on substrate: 1 mM substrate, 1 or 10 μg enzyme; for activity of AAD1 (v1) E. coli extract on substrate: 0.5 mM substrate, 4 μl extract
T1 construct: made in house; host or cells: E. coli BL-21 Star (DE3), plasmid pDAB3203

[3] = test system: wt ARBTH; assay: In vitro plate test of herbicide cross resistance: wild-type Arabidopsis; format: in vivo, Arabidopsis thaliana; details: 7 days
Method: (§1) The ability of AAD1 (v3) to provide resistance to other aryloxyphenoxyalkanoate herbicides in transgenic Arabidopsis was determined using a modified in vitro plate assay. Seeds from wild-type Arabidopsis thaliana as well as Arabidopsis thaliana containing the plant optimized AAD1 (v3) gene (T4 homozygous plants id=PAAD1.315.064) were sterilized by agitating for 10 min in a 50% bleach solution. These seeds were then rinsed four times with sterile water to remove the bleach.
(§2) Dose response assays utilized a nutrient media (see below) supplemented with various rates of test compounds. The test compounds were added to the heated media (55° C.) as concentrated solutions in DMSO. Control wells had the appropriate amount of DMSO without any additional compound. The final concentration of DMSO never exceeded 1% (v/v). After thorough mixing, a 6 mL aliquot of the warm media containing the appropriate concentration of compound was added to each well of a 6-well, flat bottom, polystyrene tissue culture tray (Falcon 353046, Becton Dickson and Company, Franklin Lakes, N.J.). After the media solidified, approximately 20 to 30 Arabidopsis seeds were applied on top of the solidified media and the remaining 2 mL of media was poured over the seeds. The plates were lightly agitated to disperse the seeds, covered and allowed to cool until the media had completely solidified. The plates were incubated for 7 days at 25° C. under continual fluorescent lighting (75 μE m^−2 s^−1). Nutrient Media Composition was as described in Example 2.2 and in Somerville and Orgen (1982).
(§3) Assessment of Growth Reduction. The apical portion of the Arabidopsis plants grown in the treated media was assessed visually relative to the apical portion of the plants grown in the media containing only DMSO. Values were recorded as % growth reduction. Assessments of root growth inhibition of the Arabidopsis plants grown in the treated media were achieved by carefully extracting the plants from the media and measuring the length of the root. These root lengths were then compared to the root length of the control plants to determine a % growth reduction. A minimum of five plants were assessed for each treatment. The values recorded are an average of all the plants assessed. The calculated concentration to reach 50% inhibition effect (I50) were determined for both root and shoots of wildtype and AAD1-transformed Arabidopsis. The ratios of resistant to sensitive biotypes are included in Table 19. A ratio>2 for both root and shoot measurements generally signifies significant resistance. The higher the ratio, the greater the level of resistance. […] The broad phenoxy auxin resistance is the first reported in planta.

[4] = test system: PAAD1.315.064 ARBTH; assay: In vitro plate test of herbicide cross resistance: homozygous T4 AAD1 (v3) Arabidopsis; format: in vivo, Arabidopsis thaliana; details: for PAAD1.315.064 ARBTH root 150 / PAAD1.315.064 T3 ARBTH shoot 150: 7 days
Method: as §1, §2, §3

[5] = test system: transformed-control line containing PAT and Cry1F; assay: Foliar-applied auxinic herbicides on control (PAT/Cry1F, wildtype) Arabidopsis, % injury 14 DAT; format: in vivo, Arabidopsis thaliana; details: PatCry1f - Control
Method: (§4) The ability of AAD1 (v3) to provide resistance to other aryloxyphenoxyalkanoate auxin herbicides in transgenic Arabidopsis was determined by foliar application of various substrates described in Example 6.8. T4 generation Arabidopsis seed, homozygous for AAD1 (v3) (line AAD1.01.315.076) was stratified, and sown into selection trays much like that of Arabidopsis (Example 6.4). A transformed-control line containing PAT and the insect resistance gene Cry1F was planted in a similar manner. Seedlings were transferred to individual 3-inch pots in the greenhouse. All plants were sprayed with the use of a track sprayer set at 187 L/ha. […] All applications were formulated in 200 mM Hepes buffer (pH 7.5). Each treatment was replicated 3-4 times. Plants were evaluated at 3 and 14 days after treatment and are averaged over two experiments.

[6] = test system: T4 Arabidopsis homozygous for AAD1 (v3) (line AAD1.01.315.076); assay: Foliar-applied auxinic herbicides on homozygous T4 AAD1 (v3) Arabidopsis, % injury 14 DAT; format: in vivo, Arabidopsis thaliana; details: AAD1.01.315.076.T4 homozygous AAD1 plants
Method: as §4

[7] = substrate 0.5 mM, 15 min, 25 mM MOPS pH 6.8, 4 μl AAD1 (32 μg protein) extract
[8] = Table 4, substrate 1 mM, 1 μg purified AAD1 (v1) per 0.16 ml assay
[9] = resistant to sensitive biotype, >2 signifies resistance

O=S(=O)(O)COc1ccc(Cl)cc1Cl [2,4-D sulfonate]
AAD2 (v1) activity on substrate ([1]; E. coli extract): little or no detectable phenol
phenol produced by AAD1 (v1) relative to 2,4-D ([2]; another test): ~25%

CC(Oc1ccc(Oc2ncc(C(F)(F)F)cc2Cl)cc1)C(=O)O (racemic) [haloxyfop]
A510 AAD2 [1]: 0.3
A510, AAD1 [2, 7]: 0.1

CC(Oc1ccc(Oc2ncc(C(F)(F)F)cc2Cl)cc1)C(=O)O (stereo not drawn) [compound 8671]
A510 AAD2 [1]: 0
A510, AAD1 [2, 7]: 0.12

C[C@@H](Oc1ccc(Oc2cnc3cc(Cl)ccc3n2)cc1)C(=O)O [(R)- quizalofop]
A510 AAD2 [1]: 0.01
A510, AAD1 [2, 8]: 0.43
A510, AAD1 (10x) ([2]; Table 4, substrate 1 mM): 2.1
kcat ([2]; purified AAD1 (v1)): 0.315 s⁻¹
Vmax ± SE ([2]; purified AAD1 (v1), Michaelis-Menten fit): 0.57 ± 0.03 μmol min^−1 mg^−1 AAD1
A510, AAD1 [2, 7]: 0.27

O=C(O)COc1ccc(Oc2ncc(C(F)(F)F)cc2Cl)cc1 [haloxyfop- oxyacetate]
A510 AAD2 [1]: 0.22
activity of purified AAD1 (v1) on substrate [2]: cleaved very slowly
A510, AAD1 [2, 8]: 0.004
A510, AAD1 (10x) ([2]; Table 4, substrate 1 mM): 0.053
A510, AAD1 [2, 7]: 0

C[C@@H](Oc1ccc(Oc2nc3ccc(Cl)cc3o2)cc1)C(=O)O [(R)- fenoxaprop]
A510 AAD2 [1]: 0
A510, AAD1 [2, 8]: 0.408
A510, AAD1 (10x) ([2]; Table 4, substrate 1 mM): 0.597
A510, AAD1 [2, 7]: 0.14

C[C@H](Oc1ccc(Oc2ccc(C#N)cc2F)cc1)C(=O)O [(S)- cyhalofop]
A510 AAD2 [1]: 0.15
activity of AAD1 (v1) E. coli extract on substrate ([2]; 15 min): no activity
activity of purified AAD1 (v1) on substrate [2]: Minimal activity
A510, AAD1 [2, 8]: 0.003
A510, AAD1 (10x) ([2]; Table 4, substrate 1 mM): 0.017
A510, AAD1 [2, 7]: 0

CC(Oc1ccc(Oc2ccc(C#N)cc2F)cc1)C(=O)O (racemic) [(R,S)- cyhalofop]
A510 AAD2 [1]: 0.1
A510, AAD1 [2, 8]: 0.215
A510, AAD1 (10x) ([2]; Table 4, substrate 1 mM): 1.815
A510, AAD1 [2, 7]: 0.12

Cc1cc(Cl)ccc1OC(C)C(=O)O (racemic) [(R,S)-mecoprop]
activity of AAD1 (v1) E. coli extract on substrate ([2]; 15 min): cleaved
A510, AAD1 ([2]; Table 3, substrate 1 mM, 1 μg purified AAD1 (v1) per 0.16 ml assay, 15 min): 0.341
A510, AAD1 (10x) ([2]; Table 3, substrate 1 mM, 15 min): 2.085
wt ARBTH root 150 [3]: 0.01 ppm
wt ARBTH shoot 150 [3]: 2 ppm
root ratio [4, 9]: 150
shoot ratio [4, 9]: 12.5
PAAD1.315.064 ARBTH root 150 [4]: 1.5 ppm
PAAD1.315.064 T3 ARBTH shoot 150 [4]: 25 ppm
Ave % Injury 14DAT ([5]; 12.5 g ae/ha foliar): 0%
Ave % Injury 14DAT ([5]; 25 g ae/ha foliar): 2%
Ave % Injury 14DAT ([5]; 50 g ae/ha foliar): 17%
Ave % Injury 14DAT ([5]; 100 g ae/ha foliar): 33%
Ave % Injury 14DAT ([5]; 200 g ae/ha foliar): 62%
Ave % Injury 14DAT ([5]; 400 g ae/ha foliar): 78%
Ave % Injury 14DAT ([5]; 800 g ae/ha foliar): 93%
Ave % Injury 14DAT ([5]; 1600 g ae/ha foliar): 100%
Ave % Injury 14DAT ([6]; 12.5 g ae/ha foliar): 3%
Ave % Injury 14DAT ([6]; 25 g ae/ha foliar): 0%
Ave % Injury 14DAT ([6]; 50 g ae/ha foliar): 0%
Ave % Injury 14DAT ([6]; 100 g ae/ha foliar): 0%
Ave % Injury 14DAT ([6]; 200 g ae/ha foliar): 3%
Ave % Injury 14DAT ([6]; 400 g ae/ha foliar): 0%
Ave % Injury 14DAT ([6]; 800 g ae/ha foliar): 0%
Ave % Injury 14DAT ([6]; 1600 g ae/ha foliar): 0%

C[C@@H](Oc1ccc(Oc2ccc(C#N)cc2F)cc1)C(=O)O [(R)- cyhalofop]
A510 AAD2 [1]: 0
A510, AAD1 [2, 8]: 0.222
A510, AAD1 (10x) ([2]; Table 4, substrate 1 mM): 1.989
A510, AAD1 [2, 7]: 0.14

O=C(O)COc1cc(Cl)c(Cl)cc1Cl [2,4,5-T]
wt ARBTH root 150 [3]: <0.01 ppm
wt ARBTH shoot 150 [3]: 1.5 ppm
shoot ratio [4, 9]: 6.67
PAAD1.315.064 ARBTH root 150 [4]: <0.01 ppm
PAAD1.315.064 T3 ARBTH shoot 150 [4]: 10 ppm
Ave % Injury 14DAT ([5]; 8.75 g ae/ha foliar): 0%
Ave % Injury 14DAT ([5]; 17.5 g ae/ha foliar): 20%
Ave % Injury 14DAT ([5]; 35 g ae/ha foliar): 43%
Ave % Injury 14DAT ([5]; 70 g ae/ha foliar): 85%
Ave % Injury 14DAT ([5]; 140 g ae/ha foliar): 95%
Ave % Injury 14DAT ([5]; 280 g ae/ha foliar): 98%
Ave % Injury 14DAT ([5]; 560 g ae/ha foliar): 100%
Ave % Injury 14DAT ([5]; 1120 g ae/ha foliar): 100%
Ave % Injury 14DAT ([6]; 8.75 g ae/ha foliar): 0%
Ave % Injury 14DAT ([6]; 17.5 g ae/ha foliar): 3%
Ave % Injury 14DAT ([6]; 35 g ae/ha foliar): 0%
Ave % Injury 14DAT ([6]; 70 g ae/ha foliar): 3%
Ave % Injury 14DAT ([6]; 140 g ae/ha foliar): 0%
Ave % Injury 14DAT ([6]; 280 g ae/ha foliar): 0%
Ave % Injury 14DAT ([6]; 560 g ae/ha foliar): 17%
Ave % Injury 14DAT ([6]; 1120 g ae/ha foliar): 3%
